# Measurements reported in patent US7495027B2, “3-aryl-4-hydroxyfuranone compounds and the human and animal health use thereof” (Wyeth, priority 2003, dated 2009).
# pIC50: −log10 of the molar value. Like-named read-outs stand apart in the source and are kept apart here.
# Key:
# [1] = molecular target: T1, S. aureus UDP-N-acetylglucosamine enolpyruvoyl transferase, MurA (Staphylococcus aureus, UniProt P84058); experiment: Inhibitory activity against MurA (S. aureus); assay type: biochemical; conditions: (S) S. aureus enzyme
# T1 sequence (P84058 1-421): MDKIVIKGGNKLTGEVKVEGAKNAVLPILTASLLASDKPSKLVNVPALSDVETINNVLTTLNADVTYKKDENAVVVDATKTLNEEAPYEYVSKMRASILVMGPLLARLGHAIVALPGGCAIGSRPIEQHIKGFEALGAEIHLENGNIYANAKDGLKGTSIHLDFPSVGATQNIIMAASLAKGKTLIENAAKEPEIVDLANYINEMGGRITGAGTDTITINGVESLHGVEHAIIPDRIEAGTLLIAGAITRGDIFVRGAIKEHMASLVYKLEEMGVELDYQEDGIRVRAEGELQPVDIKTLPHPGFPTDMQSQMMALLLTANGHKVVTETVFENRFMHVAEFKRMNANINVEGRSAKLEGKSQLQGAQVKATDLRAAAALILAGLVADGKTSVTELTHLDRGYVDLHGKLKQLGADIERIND
# Protocol: Evaluation of the Inhibitory Activity of Test Compounds Against Enzymes which Catalyze Bacterial Cell Wall Biosynthesis
# S. aureus and E. coli UDP-N-acetylglucosamine enolpyruvoyl transferase, MurA
# Preparation of Enzyme Solution:
# The enzyme solution is prepared by admixing the following: 50 mM Tris/HCl pH 8.0, […] 1 M Tris, 5 mM DTT, […] 1 M DTT, 20% Glycerol 4 ml 50% Glycerol, add water to 10 ml.
# Preparation of Stop Solution:
# The stop solution is prepared by mixing the following: 4.2% ammonium molybdate in 4N HCl, 8.4 g/200 ml 4N HCl, 0.045% malachite green, 90 mg/200 ml water, then stir 1 part ammonium molybdate with 2 parts malachite green for 30 min.
# A procedure similar to that described by C. T. Walsh in Biochemistry 33, 10646-10651, is used to evaluate the inhibitory activity of test compounds against MurA, the enzyme which catalyzes the first step of bacterial cell wall biosynthesis. Experiments are performed by adding a solution of test compound (in a mixture of dimethylsulfoxide and water) and an enzyme solution to a well. After a pre-incubation period of 10 mintues at 37° C., Tris/BME buffer and assay buffer are added. A start point optical density (OD0) reading is taken at 340 nm immediately following the addition of assay buffer. After incubation for 1 hr at 37° C., the stop solution is added and the color is allowed to develop for 30 minutes. An end point OD1 reading at […] is then taken. […]
# [2] = molecular target: E. coli Enopyruvyl-UPD-N-acetylglucosamine reductase, Mur B (Escherichia coli, UniProt P08373); experiment: biochemical; conditions: (E) E. coli enzyme; for IC50: read-out: MurB IC50 (converted)
# Sequence of E. coli Enopyruvyl-UPD-N-acetylglucosamine reductase, Mur B (P08373 whole entry): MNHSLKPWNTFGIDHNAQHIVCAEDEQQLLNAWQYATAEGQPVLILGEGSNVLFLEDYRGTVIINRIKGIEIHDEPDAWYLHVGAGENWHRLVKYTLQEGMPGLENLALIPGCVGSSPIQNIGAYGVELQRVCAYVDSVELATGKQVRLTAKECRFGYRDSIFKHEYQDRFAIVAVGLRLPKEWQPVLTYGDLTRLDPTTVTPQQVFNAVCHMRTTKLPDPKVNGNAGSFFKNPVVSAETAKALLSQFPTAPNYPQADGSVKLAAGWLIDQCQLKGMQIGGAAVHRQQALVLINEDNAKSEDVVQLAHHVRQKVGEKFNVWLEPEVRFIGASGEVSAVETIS
# [3] = molecular target: T2, S. aureus Enopyruvyl-UPD-N-acetylglucosamine reductase, Mur B (Staphylococcus aureus, UniProt P61431); experiment: biochemical; conditions: (S) S. aureus enzyme; for IC50: read-out: MurB IC50 (converted)
# T2 sequence (P61431 1-307): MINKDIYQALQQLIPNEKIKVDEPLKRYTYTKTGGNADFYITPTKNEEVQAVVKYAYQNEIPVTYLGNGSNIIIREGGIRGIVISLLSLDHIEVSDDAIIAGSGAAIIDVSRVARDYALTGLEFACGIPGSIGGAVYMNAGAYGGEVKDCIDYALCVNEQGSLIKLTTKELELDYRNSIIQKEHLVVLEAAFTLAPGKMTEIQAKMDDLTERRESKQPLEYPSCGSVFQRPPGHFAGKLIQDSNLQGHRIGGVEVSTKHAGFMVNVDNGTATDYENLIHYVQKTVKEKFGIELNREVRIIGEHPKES
# staphylococci = experiment: Minimum inhibitory concentration, microdilution broth method, staphylococci; assay type: cell-based; conditions: Mueller-Hinton broth, 18-22 hours at 35° C.; for MIC: Staphylococcus aureus
# Summary of the method: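 Strep: Mueller-Hinton + 5% horse blood (LHB). Enterococci, staph: Mueller-Hinton broth alone. Microdilution format per NCCLS M7-A5 2000; isolates include resistant clinical strains.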
# [4] = S. aureus GC 1131, read-out: MIC S. aureus GC 1131
# [5] = S. aureus GC 4543, read-out: MIC S. aureus GC 4543
SMILES,MurA IC50 [1],MurB IC50 [2],MurB IC50 [3],MIC S. aureus GC 1131 (staphylococci; S. aureus GC 1131),MIC S. aureus GC 4543 (staphylococci; S. aureus GC 4543),pIC50 [1],IC50 [2],IC50 [3],MIC (staphylococci; [4]),MIC (staphylococci; [5])
O=C1OC(=Cc2cccc3ccccc23)C(O)=C1c1ccc(C=NO)cc1 (mixture of isomers) [Example 73],>25 (S) μg/mL,> 25 µg/mL,12 µg/mL,>128 µg/mL,>128 µg/mL,,,,,
COc1cc(/C=C2\OC(=O)C(c3cccc(Cl)c3)=C2O)ccc1-c1ccccc1Cl [Example 18],,,,,,4.86,13.7 µM,11.4 µM,4 µg/mL,4 µg/mL
COc1ccccc1-c1ccc(/C=C2\OC(=O)C(c3cc(Cl)cc(Cl)c3)=C2O)cc1OC [Example 19],,,,,,4.44,42.6 µM,21.3 µM,2 µg/mL,2 µg/mL
COc1ccccc1-c1ccc(/C=C2\OC(=O)C(c3ccc(Cl)c(Cl)c3)=C2O)cc1OC [Example 20],,,,,,< 4.27,6.39 µM,6.39 µM,4 µg/mL,4 µg/mL
COc1cc(/C=C2\OC(=O)C(c3cc(Cl)cc(Cl)c3)=C2O)ccc1-c1ccccc1Cl [Example 21],,,,,,4.98,10.6 µM,6.33 µM,1 µg/mL,0.5 µg/mL
COc1cc(/C=C2\OC(=O)C(c3cccc(Cl)c3)=C2O)ccc1-c1ccccc1C [Example 22],,,,,,4.67,14.3 µM,14.3 µM,4 µg/mL,4 µg/mL
COc1ccccc1-c1ccc(/C=C2\OC(=O)C(c3cccc(Cl)c3)=C2O)cc1C [Example 23],,,,,,4.48,9.55 µM,11.9 µM,8 µg/mL,4 µg/mL
COc1ccccc1-c1ccc(/C=C2\OC(=O)C(c3cc(Cl)cc(Cl)c3)=C2O)cc1C [Example 24],,,,,,4.81,8.82 µM,4.41 µM,2 µg/mL,1 µg/mL
COc1cc(/C=C2\OC(=O)C(c3cc(Cl)cc(Cl)c3)=C2O)ccc1-c1ccccc1C [Example 25],,,,,,4.96,4.41 µM,4.41 µM,1 µg/mL,0.5 µg/mL
Cc1cc(/C=C2\OC(=O)C(c3cccc(Cl)c3)=C2O)ccc1-c1ccccc1C(F)(F)F [Example 26],,,,,,5.06,6.57 µM,4.38 µM,2 µg/mL,1 µg/mL
Cc1cc(/C=C2\OC(=O)C(c3cc(Cl)cc(Cl)c3)=C2O)ccc1-c1ccccc1C(F)(F)F [Example 27],,,,,,5.39,6.11 µM,4.07 µM,0.5 µg/mL,0.5 µg/mL
Cc1ccccc1-c1ccc(/C=C2\OC(=O)C(c3cccc(Cl)c3)=C2O)cc1C [Example 28],,,,,,4.61,7.45 µM,7.45 µM,1 µg/mL,0.5 µg/mL
Cc1ccccc1-c1ccc(/C=C2\OC(=O)C(c3cc(Cl)cc(Cl)c3)=C2O)cc1C [Example 29],,,,,,5.34,4.57 µM,4.57 µM,0.5 µg/mL,0.5 µg/mL
Cc1cc(/C=C2\OC(=O)C(c3cccc(Cl)c3)=C2O)ccc1-c1ccccc1Cl [Example 30],,,,,,5.15,4.72 µM,4.72 µM,2 µg/mL,1 µg/mL
Cc1cc(C=C2OC(=O)C(c3cc(Cl)cc(Cl)c3)=C2O)ccc1-c1ccccc1Cl [Example 31],2 (S) μg/mL,2 (E); 2 (S) μg/mL,2 (E); 2 (S) μg/mL,0.5 µg/mL,0.25 µg/mL,,,,,
COc1cc(/C=C2\OC(=O)C(c3cccc(Cl)c3)=C2O)ccc1-c1ccccc1C(F)(F)F [Example 32],,,,,,4.67,12.7 µM,6.34 µM,2 µg/mL,2 µg/mL
COc1cc(/C=C2\OC(=O)C(c3cc(Cl)cc(Cl)c3)=C2O)ccc1-c1ccccc1C(F)(F)F [Example 33],,,,,,5.10,3.94 µM,3.94 µM,0.5 µg/mL,0.5 µg/mL
O=C1O/C(=C\c2ccc(N3CCOCC3)c(F)c2)C(O)=C1c1cc(Cl)cc(Cl)c1 [Example 34],22 (S) μg/mL,,6 (S) μg/mL,32 µg/mL,32 µg/mL,,,,,
COc1ccc(C=C2OC(=O)C(c3cccc(Cl)c3)=C2O)c2ccccc12 [Example 35],>25 (S) μg/mL,,6 (S) μg/mL,8 µg/mL,8 µg/mL,,,,,
COc1ccc(/C=C2\OC(=O)C(c3cc(Cl)cc(Cl)c3)=C2O)c2ccccc12 [Example 36],,,,,,4.84,,7.26 µM,4 µg/mL,4 µg/mL
O=C1O/C(=C\c2ccc(N3CCOCC3)c3ccccc23)C(O)=C1c1cccc(Cl)c1 [Example 37],,,,,,< 4.24,,23 µM,16 µg/mL,16 µg/mL
O=C1O/C(=C\c2ccc(N3CCOCC3)c3ccccc23)C(O)=C1c1cc(Cl)cc(Cl)c1 [Example 38],,,,,,< 4.27,,17.1 µM,8 µg/mL,8 µg/mL
Cc1cc(/C=C2\OC(=O)C(c3cc(Cl)cc(Cl)c3)=C2O)ccc1-c1ccccc1OS(C)(=O)=O [Example 39],15 (S) μg/mL,8 µg/mL,4 µg/mL,2 µg/mL,4 µg/mL,,,,,
O=C1O/C(=C\c2cccc3ccccc23)C(O)=C1c1cc(Cl)cc(Cl)c1 [Example 70],,,,,,4.41,18.3 µM,13 µM,2 µg/mL,1 µg/mL
